# Source: article PMC3125149, “SCYX-7158, an Orally-Active Benzoxaborole for the Treatment of Stage 2 Human African Trypanosomiasis” (PLoS Neglected Tropical Diseases, 2011)
# Key:
# [1] = test system: T. b. brucei 427; experiment: In vitro compound sensitivity assay (resazurin viability); format: cell-based; conditions: Trypanosoma brucei
# From the text: (§1) The bloodstream-form T. b. brucei 427 strain was obtained from Dr. K. Stuart (Seattle Biomedical Research Institute, Seattle, WA) and was used for routine assessment of compound sensitivity in vitro. Additional strains used in vitro include T. b. rhodesiense STIB900, isolated in 1992 from a patient in Tanzania, and T. b. gambiense 108R, isolated from a patient in Democratic Republic of Congo in 2005. T. b. brucei EATRO 110 was a generous gift from the late William Trager of the Rockefeller University. T. b. brucei TREU 667 strains were kindly provided by F. W. Jennings at the University of Glasgow. Both T. b. brucei EATRO 110 and TREU 667 were cultured according to previously described conditions and used for in vivo studies.[18], [19]
# (§2) T. b. brucei was cultured in complete HMI-9 medium,[20] which contains 10% fetal bovine serum (FBS) (Invitrogen, Carlsbad, CA), 10% Serum Plus medium (SAFC Biosciences, Lenexa, KS), and 100 units/mL penicillin and 0.1 mg/mL streptomycin. The trypanosomes were propagated in T-25 vented cap flasks (Corning Inc., Lowell, MA) at 37°C and 5% CO2 with humidity. To ensure log growth phase, trypanosomes were sub-cultured at appropriate dilutions (typically 1∶100) every 2–3 days in fresh HMI-9 medium. T. b. rhodesiense parasites were grown in MEM medium with Earle's salts supplemented with 15% horse serum. For T. b. gambiense, the MEM medium was supplemented with 5% heat-inactivated fetal calf serum (FCS) and 15% human serum.[21] L929 mouse fibroblast cells (ATCC CCL1, American Type Culture Collection, Rockville, MD) were used to determine parasite versus mammalian cell selectivity. Cells were cultured in Dulbecco's Modified Eagle Medium (DMEM), supplemented with 10% FBS, L-glutamine and 100 units/mL penicillin and 0.1 mg/mL streptomycin. MDCKII-hMDR1 cells were generously provided by P. Borst at the Netherlands Kancer Institute. Cells were cultured in DMEM with Glutamax, 10% (v/v) FBS, and 100 units/mL penicillin and 0.1 mg/mL streptomycin. Cell monolayers were fed with cell culture media 24 h after seeding and used for permeability studies 3 days later.
# (§3) Compounds to be tested were serially diluted in DMSO and added to 96-well plates to give final concentrations ranging from 5 to 0.01 µg/mL. T. b. brucei parasites in the log phase of growth were diluted in HMI-9 media and added to each well for a final concentration of 1×10^4 parasites per well. For the sensitivity assays using T. b. rhodesiense and T. b. gambiense, pararasites were cultured in MEM supplemented with Baltz components (8), diluted in the aforementioned culture media, and added to each well at a density of 1×10^3 cells/well. The final concentration of DMSO was 0.5% and the total volume was 100 µL/well. After a 72 h incubation, resazurin (Sigma-Aldrich, St. Louis, MO) was added to each well [20 µL of 25 mg/100 mL stock in phosphate buffered saline (PBS)] and incubated for an additional 4–6 h.[22] To assess cell viability, fluorescence was quantified using an EnVision Multilabel Plate Reader (Perkin Elmer, Waltham, MA) at an excitation wavelength of 530 nm and emission of 590 nm. Triplicate data points were averaged to generate sigmoidal dose-response curves and determine IC50 values using XLfit curve fitting software from IDBS (Guilford, UK). The IC50 is defined as the amount of compound required to decrease parasite or cell viability by 50% compared to those grown in the absence of the test compound. […]
# [2] = test system: T. b. gambiense 108R; experiment: as above; format: cell-based; conditions: Trypanosoma brucei, 72 h incubation, n = 1
# From the text: as §1, §2, §3
# [3] = test system: T. b. gambiense 40R; experiment: as above; format: cell-based; conditions: Trypanosoma brucei, 72 h
# Method: as §2, §3
# [4] = test system: T. b. gambiense DAL 1402; experiment: as above; format: cell-based; conditions: Trypanosoma brucei, 72 h incubation, n = 1
# Method: as §2, §3
# [5] = test system: T. b. gambiense Drani; experiment: as above; format: cell-based; conditions: Trypanosoma brucei, 72 h incubation, n = 1
# Method: as §2, §3
# [6] = test system: T. b. gambiense ITMAP 141267; experiment: as above; format: cell-based; conditions: Trypanosoma brucei, 72 h incubation, n = 1
# Method: as §2, §3
# [7] = test system: T. b. brucei, T. b. rhodesiense and T. b. gambiense strains; experiment: Whole cell assays across representative strains (text summary of Table 1); format: cell-based; conditions: Trypanosoma brucei; 72 h incubation; range over strains of Table 1; read-out: IC50 values across parasite strains
# Method: as §3
# [8] = test system: T. b. brucei EATRO 110 strain; experiment: Efficacy in the mouse model for acute HAT; format: in vivo
# Method: For efficacy studies against acute infections, groups of 3–5 female Swiss Webster mice (Ace Animals, Boyertown, PA) were injected intraperitoneally (i.p.) with freshly drawn infected rat blood containing 2.5×10^5 trypanosomes (T. b. brucei EATRO 110 strain). The infection was allowed to progress for 24 h before treatment. Test compound was then given daily by bolus i.p. injection or oral gavage. Oxaborole compounds were formulated in 2% ethanol/5% dextrose and were given at a dose volume of 200 µL (containing 1.25 to 50 mg/kg) for a 25 g animal. Animals were monitored daily for signs of compound toxicity and clinical signs of trypanosomiasis for a period of 30 days. Mice were checked for parasitemia once per week by microscopic examination of smears prepared from the tail vein blood of animals. Animals remaining parasite free for more than 30 days beyond the end of the treatment period were considered cured. Control untreated animals typically succumbed to the infection within 4–5 days following i.p. inoculation with parasites.
compound,measurement,setting,value
CC1(C)OB(O)c2cc(NC(=O)c3ccc(F)cc3C(F)(F)F)ccc21 [SCYX-7158],IC50,"[1]; 72 h incubation, n = 9",0.292 ± 0.019 µg/mL
same,MIC,"[1]; T. b. brucei S427, visual inspection",0.6 µg/mL
same,IC50,[2],0.165 µg/mL
same,IC50,[3],0.363 µg/mL
same,IC50,[4],0.065 µg/mL
same,IC50,[5],0.129 µg/mL
same,IC50,[6],0.092 µg/mL
same,IC50,[7],0.07 to 0.37 µg/mL
same,% Cured,"[8]; 1.25 mg/kg BID, 4 days, PO",0%
same,Avg. Days Parasite-Free,"[8]; 1.25 mg/kg BID, 4 days, PO",8 days
same,Cured/Total,"[8]; 1.25 mg/kg BID, 4 days, PO",0/5
same,% Cured,"[8]; 1.25 mg/kg QD, 4 days, PO",0%
same,Avg. Days Parasite-Free,"[8]; 1.25 mg/kg QD, 4 days, PO",4.4 days
same,Cured/Total,"[8]; 1.25 mg/kg QD, 4 days, PO",0/5
same,% Cured,"[8]; 2.5 mg/kg BID, 4 days, PO",100%
same,Avg. Days Parasite-Free,"[8]; 2.5 mg/kg BID, 4 days, PO",>30 days
same,Cured/Total,"[8]; 2.5 mg/kg BID, 4 days, PO",5/5
same,% Cured,"[8]; 2.5 mg/kg QD, 4 days, PO",0%
same,Avg. Days Parasite-Free,"[8]; 2.5 mg/kg QD, 4 days, PO",8.4 days
same,Cured/Total,"[8]; 2.5 mg/kg QD, 4 days, PO",0/5
same,% Cured,"[8]; 5 mg/kg BID, 4 days, PO",100%
same,Avg. Days Parasite-Free,"[8]; 5 mg/kg BID, 4 days, PO",>30 days
same,Cured/Total,"[8]; 5 mg/kg BID, 4 days, PO",5/5
same,% Cured,"[8]; 5 mg/kg QD, 1 day, IP",0%
same,Avg. Days Parasite-Free,"[8]; 5 mg/kg QD, 1 day, IP",6 days
same,Cured/Total,"[8]; 5 mg/kg QD, 1 day, IP",0/3
same,% Cured,"[8]; 5 mg/kg QD, 4 days, PO",100%
same,Avg. Days Parasite-Free,"[8]; 5 mg/kg QD, 4 days, PO",>30 days
same,Cured/Total,"[8]; 5 mg/kg QD, 4 days, PO",5/5
same,% Cured,"[8]; 10 mg/kg BID, 4 days, PO",100%
same,Avg. Days Parasite-Free,"[8]; 10 mg/kg BID, 4 days, PO",>30 days
same,Cured/Total,"[8]; 10 mg/kg BID, 4 days, PO",5/5
same,% Cured,"[8]; 10 mg/kg QD, 1 day, IP",0%
same,Avg. Days Parasite-Free,"[8]; 10 mg/kg QD, 1 day, IP",9.3 days
same,Cured/Total,"[8]; 10 mg/kg QD, 1 day, IP",0/3
same,% Cured,"[8]; 10 mg/kg QD, 4 days, PO",100%
same,Avg. Days Parasite-Free,"[8]; 10 mg/kg QD, 4 days, PO",>30 days
same,Cured/Total,"[8]; 10 mg/kg QD, 4 days, PO",5/5
same,% Cured,"[8]; 25 mg/kg QD, 1 day, IP",100%
same,Avg. Days Parasite-Free,"[8]; 25 mg/kg QD, 1 day, IP",>30 days
same,Cured/Total,"[8]; 25 mg/kg QD, 1 day, IP",3/3
same,% Cured,"[8]; 25 mg/kg QD, 1 day, PO",33%
same,Avg. Days Parasite-Free,"[8]; 25 mg/kg QD, 1 day, PO",8.3 days
same,Cured/Total,"[8]; 25 mg/kg QD, 1 day, PO",1/3
